Patent publication US11331299B2, “Medicinal use of serrulatane diterpenes” (The University of Sydney, priority 2016, dated 2022)

Assays:
EHMT1 (h) = molecular target: T1, EHMT1 (h) (Homo sapiens, UniProt Q9H9B1); assay: Epigenetic enzyme assay, Methyltransferases (MTs); assay type: biochemical; details: for inhibition at 10 µM: read-out: % Inhibition of Control Values
T1 sequence (Q9H9B1 1-1298): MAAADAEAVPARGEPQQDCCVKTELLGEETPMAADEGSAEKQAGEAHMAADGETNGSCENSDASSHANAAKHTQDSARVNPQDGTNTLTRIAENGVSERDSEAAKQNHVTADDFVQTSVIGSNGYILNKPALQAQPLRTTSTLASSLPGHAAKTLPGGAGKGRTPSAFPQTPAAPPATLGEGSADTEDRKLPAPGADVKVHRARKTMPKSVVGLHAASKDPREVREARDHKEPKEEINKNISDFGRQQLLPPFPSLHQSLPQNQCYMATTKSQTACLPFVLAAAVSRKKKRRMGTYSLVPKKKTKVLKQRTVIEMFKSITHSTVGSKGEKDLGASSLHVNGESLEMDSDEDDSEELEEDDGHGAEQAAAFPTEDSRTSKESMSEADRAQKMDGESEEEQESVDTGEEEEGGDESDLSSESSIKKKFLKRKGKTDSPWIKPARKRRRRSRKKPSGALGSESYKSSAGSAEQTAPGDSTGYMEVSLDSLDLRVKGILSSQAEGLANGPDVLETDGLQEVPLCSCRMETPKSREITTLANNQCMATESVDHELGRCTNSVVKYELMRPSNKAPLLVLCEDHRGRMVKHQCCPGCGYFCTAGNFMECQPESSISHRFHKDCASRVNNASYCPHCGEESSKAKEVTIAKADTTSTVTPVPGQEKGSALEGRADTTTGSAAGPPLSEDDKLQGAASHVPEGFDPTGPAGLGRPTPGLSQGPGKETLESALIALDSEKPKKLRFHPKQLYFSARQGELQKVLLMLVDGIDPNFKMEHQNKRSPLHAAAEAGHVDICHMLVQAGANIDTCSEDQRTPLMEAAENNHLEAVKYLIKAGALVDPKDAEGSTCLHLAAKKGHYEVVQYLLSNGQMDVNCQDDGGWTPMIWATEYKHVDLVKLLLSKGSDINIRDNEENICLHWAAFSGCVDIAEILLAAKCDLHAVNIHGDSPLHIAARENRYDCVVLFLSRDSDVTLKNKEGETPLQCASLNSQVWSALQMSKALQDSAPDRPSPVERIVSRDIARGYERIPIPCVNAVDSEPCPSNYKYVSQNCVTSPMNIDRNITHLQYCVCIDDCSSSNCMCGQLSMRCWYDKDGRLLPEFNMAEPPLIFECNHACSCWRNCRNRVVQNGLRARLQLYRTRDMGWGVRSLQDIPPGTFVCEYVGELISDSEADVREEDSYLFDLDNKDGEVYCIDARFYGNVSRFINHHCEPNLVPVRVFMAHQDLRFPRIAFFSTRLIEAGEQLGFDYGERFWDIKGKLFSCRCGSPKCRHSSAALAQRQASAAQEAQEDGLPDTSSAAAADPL

HDAC7 (h) = molecular target: T2, HDAC7 (h) (Homo sapiens, UniProt Q8WUI4); assay: Epigenetic enzyme assay, Histone deacetylase (HDACs); assay type: biochemical; details: read-out: % Inhibition of Control Values
T2 sequence (Q8WUI4 1-952): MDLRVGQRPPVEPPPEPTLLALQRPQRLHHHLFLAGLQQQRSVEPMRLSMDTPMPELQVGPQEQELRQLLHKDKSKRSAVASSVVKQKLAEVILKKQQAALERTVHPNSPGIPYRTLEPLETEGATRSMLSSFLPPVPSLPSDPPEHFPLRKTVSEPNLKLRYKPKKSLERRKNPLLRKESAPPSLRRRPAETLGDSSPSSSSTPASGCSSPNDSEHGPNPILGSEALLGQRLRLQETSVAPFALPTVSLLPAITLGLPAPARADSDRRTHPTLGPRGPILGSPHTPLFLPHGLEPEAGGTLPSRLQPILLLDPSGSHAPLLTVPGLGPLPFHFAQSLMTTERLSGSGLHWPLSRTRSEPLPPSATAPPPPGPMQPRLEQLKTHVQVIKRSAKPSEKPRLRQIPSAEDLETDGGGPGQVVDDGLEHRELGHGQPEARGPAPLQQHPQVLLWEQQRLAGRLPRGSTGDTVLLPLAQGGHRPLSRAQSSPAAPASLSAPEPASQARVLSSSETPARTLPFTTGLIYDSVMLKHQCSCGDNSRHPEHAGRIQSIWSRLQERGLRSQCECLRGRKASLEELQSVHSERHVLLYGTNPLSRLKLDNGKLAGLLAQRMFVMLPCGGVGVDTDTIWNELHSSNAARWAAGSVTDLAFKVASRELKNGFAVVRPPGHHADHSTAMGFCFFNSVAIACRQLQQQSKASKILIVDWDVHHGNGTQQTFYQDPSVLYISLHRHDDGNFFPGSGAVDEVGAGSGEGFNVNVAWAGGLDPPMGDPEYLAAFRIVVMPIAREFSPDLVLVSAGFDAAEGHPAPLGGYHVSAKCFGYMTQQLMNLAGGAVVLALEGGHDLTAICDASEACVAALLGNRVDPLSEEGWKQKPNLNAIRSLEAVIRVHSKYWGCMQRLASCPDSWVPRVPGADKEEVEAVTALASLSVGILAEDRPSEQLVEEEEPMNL

## CC(C)=CCC[C@H](CO)[C@@H]1CC[C@@H](C)c2c1cc(C)c(O)c2O [Compound 1, 7,8,18-trihydroxyserrulat-14-ene]
EHMT1 (h)
  inhibition at 10 µM: 13%
HDAC7 (h)
  inhibition at 10 µM: -111%

## CC(C)=CCC[C@@H]1C(O)Oc2c(C)cc(O)c3c2[C@H]1CC[C@H]3C (stereo partly shown) [Compound 2, 5,18-epoxyserrulat-14-en-8,18-diol]
EHMT1 (h)
  inhibition at 10 µM: 9%
HDAC7 (h)
  inhibition at 10 µM: -6%

## CC(C)=CCC[C@@H]1COc2c(C)cc(O)c3c2[C@H]1CC[C@H]3C [Compound 3, 5,18-epoxy-8-hydroxyserrulat-14-ene]
EHMT1 (h)
  inhibition at 10 µM: 63%
HDAC7 (h)
  inhibition at 10 µM: 16%

## Nc1ncnc2c1ncn2[C@@H]1O[C@H](CSCC[C@H](N)C(=O)O)[C@@H](O)[C@H]1O [SAH]
EHMT1 (h); read-out: Reference IC50
  IC50: 180 nM
